The text below walks through data of PMC3081938 (Journal of natural products, 2011).

Each structure is given as a SMILES string. “Also recorded” adds a separate entry of the source.

Assay [1] concerns locomotor effects of cocaine. The conditions noted are these: rats; cited from earlier work.
Assay [2] deals with 5-HT2A receptor. The conditions noted are these: cited from earlier work.
Assay [3] addresses T1, KOP receptors (Homo sapiens, UniProt P41145). Description: biochemical. The format is biochemical.
For assay [4], the system named is opioid mediated antinociceptive properties. The settings on record: rats; cited from earlier work.
The test system of assay [5] is κ opioid (KOP) receptors. The conditions noted are these: cited from earlier work.
Assay [6] has as its target DOP receptors (Homo sapiens, UniProt P41143). Format: binding.
The target in assay [7] is T1, KOP receptors. Briefly: biochemical. Format: binding.

In general, EC50 refers to the midpoint of the concentration-response curve. A low value points to an effect from little substance. The Ki is a dissociation constant, usually derived from enzyme kinetics or from competition with a known ligand. High values mean lower affinity, low ones higher affinity.

T1 sequence (P41145 whole entry): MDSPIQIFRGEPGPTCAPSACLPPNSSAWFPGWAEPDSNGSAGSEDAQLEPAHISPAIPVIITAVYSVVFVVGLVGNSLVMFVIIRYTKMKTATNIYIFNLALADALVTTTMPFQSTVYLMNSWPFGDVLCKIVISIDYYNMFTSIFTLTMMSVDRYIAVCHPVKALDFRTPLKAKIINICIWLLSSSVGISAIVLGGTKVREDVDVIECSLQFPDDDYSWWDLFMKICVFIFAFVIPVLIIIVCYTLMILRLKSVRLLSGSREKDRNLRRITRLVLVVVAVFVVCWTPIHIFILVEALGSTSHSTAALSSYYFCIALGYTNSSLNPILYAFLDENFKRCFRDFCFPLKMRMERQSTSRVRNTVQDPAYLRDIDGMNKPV
Chain of DOP receptors (P41143 whole entry): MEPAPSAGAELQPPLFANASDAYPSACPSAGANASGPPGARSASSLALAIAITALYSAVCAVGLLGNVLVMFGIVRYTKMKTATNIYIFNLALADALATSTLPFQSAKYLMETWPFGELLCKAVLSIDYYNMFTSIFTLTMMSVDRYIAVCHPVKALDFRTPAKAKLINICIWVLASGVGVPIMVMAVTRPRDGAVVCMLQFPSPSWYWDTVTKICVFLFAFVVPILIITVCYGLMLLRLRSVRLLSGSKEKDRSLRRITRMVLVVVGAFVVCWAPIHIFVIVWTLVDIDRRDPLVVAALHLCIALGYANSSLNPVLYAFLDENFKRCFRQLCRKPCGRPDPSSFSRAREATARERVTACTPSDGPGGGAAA

With `COC(=O)[C@@H]1C[C@H](OC(C)=O)C(=O)[C@H]2[C@@]1(C)CC[C@H]1C(=O)O[C@H](c3ccoc3)C[C@]21C` [Compound 1, (2S,4aR,6aR,7R,9S,10aS,10bR)-methyl 9-acetoxy-2-(furan-3-yl)-6a,10b-dimethyl-4,10-dioxo-dodecahydro-1H-benzo[f]isochromene-7-carboxylate], the “Effect on locomotor effects of cocaine” value in assay [1] was “can block the locomotor effects of cocaine”. Moreover, the “Affinity for the 5-HT2A receptor” value in assay [2] is “does not have any affinity”. Moreover, the “KOP ED50 ± SD” value in assay [3] turned out to be 40 nM. In addition, the Antinociceptive properties result in assay [4] was “opioid mediated antinociceptive properties”. In addition, the “Agonism at κ opioid (KOP) receptors” value in assay [5] is given as “full agonist”.

Take `CCOC(=O)C1=C(C(=O)OCC)C2OC1C=C2[C@@H]1C[C@]2(C)[C@H]3C(=O)[C@@H](OC(C)=O)C[C@@H](C(=O)OC)[C@]3(C)CC[C@H]2C(=O)O1` (stereo partly drawn) [Compound 5, Diethyl 5-((2S,4aR,6aR,7R,9S,10aS,10bR)-9-acetoxy-7-(methoxycarbonyl)-6a,10b-dimethyl-4,10-dioxododecahydro-1H-benzo[f]isochromen-2-yl)-7-oxabicyclo[2.2.1]hepta-2,5-diene-2,3-dicarboxylate]: in assay [3], the concentration giving a half-maximal response (EC50) is 2150 nM and the “Efficacy at KOP receptors (in words)” value is listed as “full agonists; also recorded: high efficacy”. For the same molecule, the “Fold increase in affinity for DOP receptors” value in assay [6] is recorded as “over 4 fold”.

As to `COC(=O)C1=C(C(=O)OC)C2OC1C=C2[C@@H]1C[C@]2(C)[C@H]3C(=O)[C@@H](OC(C)=O)C[C@@H](C(=O)OC)[C@]3(C)CC[C@H]2C(=O)O1` (stereo partly drawn) [Compound 6, Dimethyl 5-((2S,4aR,6aR,7R,9S,10aS,10bR)-9-acetoxy-7-(methoxycarbonyl)-6a,10b-dimethyl-4,10-dioxododecahydro-1H-benzo[f]isochromen-2-yl)-7-oxabicyclo[2.2.1]hepta-2,5-diene-2,3-dicarboxylate], in assay [3], the EC50 was found to be 980 ± 200 nM and the “Efficacy at KOP receptors (in words)” value was “full agonist”.

`COC(=O)[C@@H]1C[C@H](OC(C)=O)C(=O)[C@H]2[C@@]1(C)CC[C@H]1C(=O)O[C@H](C3=CC4OC3C3C5OC(c6c5c5ccccc5c(=O)c5ccccc65)C43)C[C@]21C` (stereo partly drawn) [Compound 11, (2S,4aR,6aR,7R,9S,10aS,10bR)-Methyl 9-acetoxy-2-(8,8a,9,12,12a,13-hexahydro-8,13:9,12-diepoxy-5H-dibenzo[3,4:6,7]cyclohept[1,2]naphthanen-5-on-10-yl)-6a,10b-dimethyl-4,10-dioxododecahydro-1H-benzo[f]isochromene-7-carboxylate]: in assay [6], the “Ki ± SD (nM) DOP” value was “no appreciable affinity”.

Take `COC(=O)[C@@H]1C[C@H](OC(C)=O)C(=O)[C@H]2[C@@]1(C)CC[C@H]1C(=O)O[C@H](C3=CC4OC3C3C4C4OC3(C)c3c4c4ccccc4c(=O)c4ccccc34)C[C@]21C` (stereo partly drawn) [Compound 12, (2S,4aR,6aR,7R,9S,10aS,10bR)-Methyl 9-acetoxy-2-(8,8a,9,12,12a,13-hexahydro-8-methyl-8,13:9,12-diepoxy-5H-dibenzo[3,4:6,7]cyclohept[1,2]naphthanen-5-on-10-yl)-6a,10b-dimethyl-4,10-dioxododecahydro-1H-benzo[f]isochromene-7-carboxylate]: the “Fold increase in affinity for KOP receptors” value in assay [7] stood at 44 fold.

The molecule `COC(=O)c1ccc([C@@H]2C[C@]3(C)[C@H]4C(=O)[C@@H](OC(C)=O)C[C@@H](C(=O)OC)[C@]4(C)CC[C@H]3C(=O)O2)cc1C(=O)OC` [Compound 14, Dimethyl 4-((2S,4aR,6aR,7R,9S,10aS,10bR)-9-acetoxy-7-(methoxycarbonyl)-6a,10b-dimethyl-4,10-dioxododecahydro-1H-benzo[f]isochromen-2-yl)phthalate] yielded a Ki in assay [7] of 228 nM.

`COC(=O)[C@@H]1C[C@H](OC(C)=O)C(=O)[C@H]2[C@@]1(C)CC[C@H]1C(=O)O[C@H](c3ccc4ccccc4c3)C[C@]21C` [Compound 15, (2S,4aR,6aR,7R,9S,10aS,10bR)-methyl 9-acetoxy-6a,10b-dimethyl-2-(naphthalen-2-yl)-4,10-dioxododecahydro-1H-benzo[f]isochromene-7-carboxylate] registered a Ki in assay [7] of 286 nM.
